Assay results taken from paper PMC11547576, “Identification of a New Promising BAG3 Modulator Featuring the Imidazopyridine Scaffold” (Molecules, 2024).

Experiments:
HeLa cells [1] = test: Cell cycle and hypodiploid nuclei analysis by PI staining flow cytometry; format: cell-based, human; conditions: 72 h, all tested concentrations (50, 30, 20 µM)
Method: Given BAG3’s well-documented anti-apoptotic role, annexin V-FITC/PI staining was performed to evaluate the effects of compound 10 on cell apoptosis. […] Specifically, at 50 µM, 81.0 ± 3.89% of the cells were apoptotic (p < 0.001 vs. Ctrl); at 30 µM, 70.5 ± 4.56% were apoptotic (p < 0.01 vs. Ctrl); and at 20 µM, 51.5 ± 2.23% were apoptotic (p < 0.05 vs. Ctrl) (Figure 3A,B).
Hypodiploid nuclei were analyzed using PI staining by flow cytometry. HeLa cells (1 × 10^5 cells/well) were grown in 12-well plates and allowed to adhere for 24 h. Subsequently, the medium was replaced with fresh medium, and the cells were treated for 72 h with compound 10 at concentrations of 20, 30, and 50 µM, 0.1% (v/v) DMSO (negative control), and 10% (v/v) DMSO (positive control). Following treatment, the culture medium was replaced, and the cells were washed twice with PBS. The cells were then suspended in […] of a solution containing 50 mg/L PI, 0.1% (w/v) sodium citrate, and 0.1% Triton X-100. […] After incubation at 4 °C for 30 min in the dark, cell nuclei were analyzed using a Becton Dickinson FACS flow cytometer (Franklin Lakes, NJ, USA) with the Cell Quest program, and the DNA content of the nuclei was recorded. Cellular debris was excluded from the analysis by increasing the forward scatter threshold, and the percentages of cells in the hypodiploid region (sub-G0/G1), G1, S, and G2 regions were calculated. […]

caspase 9 = test: Caspase 9 determination by flow cytometry; format: cell-based, human; conditions: HeLa cells, 72 h, 50, 30 and 20 µM, vs control
Method: Furthermore, we investigated the expressions of caspases, key mediators of programmed cell death, in HeLa cells treated with compound 10 at the same concentrations used in the previous assays. […] To further confirm the pro-apoptotic mechanism induced by compound 10, Western blotting was performed to measure the expression and cleavage of caspase 3 [38, 39].
HeLa cells were seeded into 6-well plates (2.5 × 10^5 cells/well) and allowed to adhere for 24 h. The cells were then treated for 72 h with compound 10 at concentrations of 20, 30, and 50 µM, as well as with 0.1% DMSO negative (control), to assess caspase 3 and caspase 9 levels. After treatment, cells were collected, washed with PBS, and incubated at 4 °C first with a fixing buffer (containing 1% formaldehyde and 1% FBS in PBS) for 20 min, followed by permeabilization with fix perm solution (fixing buffer containing 0.1% Triton X-100) for 30 min. Next, the cells were incubated with anti-caspase 3 (1:500; SC-7272, Santa Cruz, CA, USA) and anti-caspase 9 (1:50; BS-0049R, Bioss Antibodies, Woburn, MA, USA) antibodies for 30 min at 4 °C. […] Cell fluorescence was then evaluated using a fluorescence-activated cell sorter (FACSscan, Becton Dickinson, Milan, Italy) and analyzed with Cell Quest software (4.0, Becton Dickinson, North Ryde, Australia). […]

HeLa cells [2] = test: MTT cell viability assay on HeLa cells; format: cell-based; conditions: Homo sapiens, 72 h
Method: Elevated expression levels of BAG3 are strongly associated with signaling pathways in various types of malignant cells; consequently, reducing the activity of this co-chaperone inhibits cell proliferation, triggers apoptosis, and induces cell cycle arrest. To assess the activity of compounds 10, 12, and 14, cytotoxicity assays were performed on HeLa cells, which were chosen for their tendency to overexpress BAG3 proteins. MTT assays were conducted by exposing HeLa cells to different concentrations of the compounds (25, 50, and 100 µM) for 72 h. Additionally, 10% DMSO was used as a positive control, while 0.1% DMSO served as a negative control. […] The next step involved the assessment of the cytotoxicity of the most promising candidate, 10, on healthy cells to determine its safety profile. To achieve this, MTT assays were conducted on HaCat cells over 72 h.
Human cervical carcinoma cell lines (HeLa, kindly donated by Prof. Ornella Moltedo, Department of Pharmacy, University of Salerno) and immortalized human keratinocytes (HaCaT) were cultured in a DMEM/high glucose medium. This medium was supplemented with 10% FBS (v/v), 2 mM/L glutamine, 100 U/mL penicillin, and […] streptomycin. The cells were maintained at 37 °C in a humidified atmosphere with 5% CO2. To ensure logarithmic growth, the cells were sub-cultured every 2 days.
Cell viability was assessed by measuring mitochondrial metabolic activity using a colorimetric assay, which involves the reduction of 3-[4,5-dimethylthiazol-2,5-diphenyl-2H-tetrazolium bromide (MTT) to purple formazan. Stock solutions of compounds 10, 12, and 14 (50 mM in DMSO) were stored at −20 °C in the dark and diluted just before being added to the sterile culture medium. Briefly, HeLa cells (3.5 × 10^3 cells/well) were seeded in triplicate in 96-well plates, and after 24 h, to allow for attachment, the cells were treated with various concentrations of the tested compounds (25, 50 and 100 μM), 0.1% (v/v) DMSO as a negative control, and 10% (v/v) DMSO as a positive control for 72 h. Following treatment, 20 μL of MTT (5 mg/mL in PBS) was added to each well, and the cells were incubated for an additional 3 h at 37 °C. The formazan crystals formed were then dissolved in 100 μL of a buffer containing 50% (v/v) N, N-dimethylformamide and 20% SDS (pH 4.5). Absorbance was measured at 570 nm using a Multiskan™ GO Microplate Spectrophotometer (Thermo Fisher Scientific, Waltham, MA, USA,). […] The IC50 values, representing the concentration causing 50% inhibition of cell survival, were calculated and compared to control cells treated with DMSO using GraphPad Prism 8.0 software through nonlinear regression of dose–response inhibition. Only for compound 10 was the IC50 also assessed on HaCaT cells (5.0 × 10^3 cells/well) after 72 h of treatment.

CC(C)Nc1c(-c2ccccc2Br)nc2ccc(Cl)cn12 [Compound 10, 2-(2-bromophenyl)-6-chloro-N-isopropylimidazo[1,2-a]pyridin-3-amine]
cell cycle arrest (HeLa cells [1]): consistent and significant cell cycle arrest | hypodiploid nuclei (HeLa cells [1]): increase in hypodiploid nuclei | activation of caspase 9 (caspase 9): pronounced, dose-dependent activation | mortality at 25 µM (HeLa cells [2]; 25 µM): 50% | mortality at 100 µM (HeLa cells [2]; 100 µM): > 90% | IC50 (HeLa cells [2]; seven concentrations (1 to 100 µM)): 25.1 ± 2.67 µM
